# PubChem BioAssay (NCI)
# Where “and” joins values, the source holds several entries; their conditions need not be identical. Equal values may be shown once.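 Cultured in 96-well plates, cells were exposed to test compound for 48 hours across five concentrations. GI50 is the concentration that inhibits growth by half. Definition used: TGI = concentration required for complete inhibition of growth.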
# Assays:
# Assay in all cases: NCI tumour cell line growth inhibition, 48 h
# HCT-116 colon = tested on: HCT-116 colon
# IGROV1 ovarian = tested on: IGROV1 ovarian
# LOX IMVI melanoma = tested on: LOX IMVI melanoma
# SN12C renal = tested on: SN12C renal
# M14 melanoma = tested on: M14 melanoma
# HOP-92 NSCLC = tested on: HOP-92 NSCLC
# SK-MEL-28 melanoma = tested on: SK-MEL-28 melanoma
# HCC-2998 colon = tested on: HCC-2998 colon
# TK-10 renal = tested on: TK-10 renal
# EKVX NSCLC = tested on: EKVX NSCLC
SMILES,GI50 (HCT-116 colon),TGI (HCT-116 colon),GI50 (IGROV1 ovarian),TGI (IGROV1 ovarian),GI50 (LOX IMVI melanoma),TGI (LOX IMVI melanoma),GI50 (SN12C renal),TGI (SN12C renal),GI50 (M14 melanoma),TGI (M14 melanoma),GI50 (HOP-92 NSCLC),TGI (HOP-92 NSCLC),GI50 (SK-MEL-28 melanoma),TGI (SK-MEL-28 melanoma),GI50 (HCC-2998 colon),TGI (HCC-2998 colon),GI50 (TK-10 renal),TGI (TK-10 renal),GI50 (EKVX NSCLC),TGI (EKVX NSCLC)
N=C(N)c1ccc(-c2ccc(-c3ccco3)o2)cc1,3.04 µM,10.3 µM,4.38 µM,16.7 µM,2.23 µM,5.2 µM,5.97 µM,21.2 µM,1.9 µM,3.77 µM,1.38 µM,4.7 µM,2.31 µM,6.22 µM,1.85 µM,3.42 µM,4.33 µM,15.6 µM,–,–
COc1cc(C2CC(c3ccc(C)cc3)=NN2C(C)=O)ccc1Oc1ccnc2cc(Cl)ccc12 (stereo not given),0.681 µM,> 100 µM,38.2 µM,> 100 µM,–,–,> 100 µM,> 100 µM,> 100 µM,> 100 µM,30.1 µM,> 100 µM,> 100 µM,> 100 µM,> 100 µM,> 100 µM,–,–,> 100 µM,> 100 µM
COc1cc(C=C2C(=O)OC(C)(C)OC2=O)cc(OC)c1OC,–,> 100 µM,–,–,–,> 100 µM,–,> 100 µM,–,> 100 µM,–,> 100 µM,–,> 100 µM,–,> 100 µM,–,> 100 µM,–,> 100 µM
Cc1ccc(NC(=O)C(=O)C2C(=O)C3=C(CC2(C)C)NC2C=CC=CC2S3)c(C)c1 (stereo not given),–,> 100 µM,–,> 100 µM,–,> 100 µM,–,> 100 µM,–,–,–,> 100 µM,–,> 100 µM,–,> 100 µM,–,> 100 µM,–,> 100 µM
CCSc1sc(-c2ccc(C)cc2)nc1[P+](c1ccccc1)(c1ccccc1)c1ccccc1,0.252 µM,1.17 µM,–,–,0.267 µM,0.913 µM,0.294 µM,1.11 µM,0.342 µM,1.51 µM,0.174 µM,0.593 µM,0.532 µM,1.82 µM,0.47 µM,1.62 µM,0.271 µM,1.48 µM,0.244 µM,0.904 µM
O=C1/C(=C/c2ccc(F)cc2)CN(Cc2cn(CCNc3ccnc4cc(Cl)ccc34)nn2)C/C1=C\c1ccc(F)cc1,0.258 µM,0.721 µM,1.5 µM,2.93 µM,0.474 µM,1.72 µM,1.58 µM,3.09 µM,1.92 µM,3.74 µM,1.34 µM,3.05 µM,1.74 µM,3.13 µM,1.19 µM,2.55 µM,1.85 µM,3.45 µM,–,–
COc1ccc(C2CC(c3cccc(Nc4ccnc5cc(Cl)ccc45)c3)=NN2c2ccccc2)cc1 (stereo not given),1.12 µM,18.7 µM,11.6 µM,> 100 µM,0.338 µM,11.1 µM,7.19 µM,> 100 µM,0.331 µM,15.4 µM,3.93 µM,47.6 µM,4.41 µM,32.5 µM,0.535 µM,11.5 µM,3.76 µM,97.2 µM,–,–
CCCCCc1c(C)[nH]c(/C=C2\N=C(c3ccc[nH]3)C=C2Oc2ccc(OC)cc2)c1C,0.0373 µM and 0.0269 µM,1.13 µM and 0.127 µM,0.244 µM and 0.0925 µM,1.49 µM and 3.07 µM,0.0406 µM and 0.0197 µM,0.289 µM and 0.0534 µM,0.2 µM and 0.0483 µM,1.54 µM and 0.418 µM,0.167 µM and 0.0234 µM,0.458 µM and 0.0635 µM,0.145 µM and 0.0153 µM,0.575 µM and 0.101 µM,0.231 µM and 0.0512 µM,0.904 µM and 0.281 µM,0.0963 µM and 0.0369 µM,6.44 µM and 1.91 µM,0.335 µM and 0.0439 µM,1.69 µM and 0.331 µM,–,–
COc1ccc(/C=N\N2C(=O)Cc3ccccc32)cc1,–,> 100 µM,–,> 100 µM,–,> 100 µM,–,–,–,> 100 µM,–,85.5 µM,–,> 100 µM,–,> 100 µM,–,> 100 µM,–,> 100 µM
COc1cc2c3c(c1OC)C1(C=CC(=O)C=C1)CC3N(C(=O)OC(C)(C)C(Cl)(Cl)Cl)CC2 (stereo not given),–,19 µM,–,41.9 µM,–,26.1 µM,–,26.6 µM,–,28.8 µM,–,29.8 µM,–,–,–,–,–,> 100 µM,–,45.2 µM
COc1cc(OC)cc(-c2n[nH]nc2-c2ccc3c(c2)OCO3)c1,0.181 µM,15.6 µM,0.432 µM,> 100 µM,0.545 µM,87.1 µM,2.14 µM,> 100 µM,0.0948 µM,12 µM,0.122 µM,1.59 µM,4.44 µM,43.5 µM,2.15 µM,24.6 µM,17.6 µM,> 100 µM,–,–
COC1=C(C(=O)OC(C)(C)C)C23CCCCC2(C(C(=O)OC(C)(C)C)=C(OC)C3C(=O)OC(C)(C)C)C1C(=O)OC(C)(C)C (stereo not given),–,> 100 µM,–,> 100 µM,–,> 100 µM,–,> 100 µM,–,> 100 µM,–,89.5 µM,–,–,–,> 100 µM,–,> 100 µM,–,> 100 µM
Oc1ccc(Br)cc1CN1CCN(Cc2ccc(Cl)cc2)CC1,21.1 µM,> 100 µM,44.3 µM,> 100 µM,16.3 µM,36.9 µM,27.1 µM,> 100 µM,–,–,11.1 µM,72.1 µM,24 µM,> 100 µM,30.8 µM,> 100 µM,24.8 µM,> 100 µM,–,–
COc1ccc(-n2cc(-c3ccc(Cl)cc3)[nH]c2=S)cc1Cl,47.2 µM,> 100 µM,30.2 µM,> 100 µM,94 µM,> 100 µM,39.1 µM,> 100 µM,–,–,17.2 µM,43.5 µM,36.5 µM,> 100 µM,57.4 µM,> 100 µM,47.3 µM,> 100 µM,42.8 µM,> 100 µM
COc1ccc2c(c1)C(CCN)C(=O)N2 (stereo not given),–,> 100 µM,–,> 100 µM,–,> 100 µM,–,–,–,> 100 µM,–,> 100 µM,–,> 100 µM,–,> 100 µM,–,> 100 µM,–,> 100 µM
O=C(O)CSc1ccn(Cc2ccccc2)c1,–,> 100 µM,–,> 100 µM,–,> 100 µM,–,> 100 µM,–,> 100 µM,–,> 100 µM,–,> 100 µM,–,–,–,> 100 µM,–,> 100 µM
